Test results published in US5602101A, “Antithrombotic agents” (priority 1994, dated 1997).

How the values were obtained:
human thrombin = molecular target: T1, human thrombin (Homo sapiens, UniProt P00734); assay: Inhibition of amidase activity of thrombin (chromogenic substrate), Kass; format: biochemical; details: substrate N-benzoyl-Phe-Val-Arg-p-nitroanilide, pH 7.4
T1 construct: purified human thrombin Enzyme Research Laboratories, South Bend, Ind; purchased Enzyme Research Laboratories, South Bend, Ind
Description: (§1) The assay is carried out by mixing 50 μl buffer (0.03M Tris, 0.15M NaCl, pH 7.4), 25 μl of human thrombin solution (purified human thrombin Enzyme Research Laboratories, South Bend, Ind.) at 8 NIH units/ml and 25 μl of test compound in a solvent (50% aqueous methanol (v:v)). Then 150 μl of an aqueous solution of the chromogenic substrate (at 0.25 mg/ml) are added and the rates of hydrolysis of the substrate are measured by monitoring the reactions at 405 nm for the release of p-nitroaniline. Standard curves are constructed by plotting free thrombin concentration against hydrolysis rate. The hydrolysis rates observed with test compounds are then converted to "free thrombin" values in the respective assays by use of the standard curves. The bound thrombin (bound to test compound) is calculated by subtracting the amount of free thrombin observed in each assay from the known initial amount of thrombin used in the assay. The amount of free inhibitor in each assay is calculated by subtracting the number of moles of bound thrombin from the number of moles of added inhibitor (test compound).
The Kass value is the hypothetical equilibrium constant for the reaction between thrombin and the test compound (I). [drawing 53]
(§2) Kass is calculated for a range of concentrations of test compounds and the mean value is reported in units of liter per mole.

factor Xa = molecular target: T2, factor Xa (Homo sapiens, UniProt P00742); assay: Serine protease inhibition, factor Xa (chromogenic substrate), Kass; format: biochemical; details: substrate N-Benzoyl-Ile-Glu-Gly-Arg-p-nitroanilide
T2 construct: Human factors X, Xa, IXa, XIa, and xIIa are purchased from Enzyme Research Laboratories; purchased Enzyme Research Laboratories, South Bend, Ind
T2 sequence (P00742 235-488 limits assumed): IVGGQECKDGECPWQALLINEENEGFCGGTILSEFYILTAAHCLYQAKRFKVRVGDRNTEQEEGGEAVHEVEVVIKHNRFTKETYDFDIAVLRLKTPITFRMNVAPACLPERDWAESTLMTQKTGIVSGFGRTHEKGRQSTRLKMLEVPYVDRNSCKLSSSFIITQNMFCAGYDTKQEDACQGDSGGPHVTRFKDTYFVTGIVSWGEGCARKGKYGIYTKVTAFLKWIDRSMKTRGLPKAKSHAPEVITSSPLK
T2 sequence (P00742 41-179 partner limits assumed): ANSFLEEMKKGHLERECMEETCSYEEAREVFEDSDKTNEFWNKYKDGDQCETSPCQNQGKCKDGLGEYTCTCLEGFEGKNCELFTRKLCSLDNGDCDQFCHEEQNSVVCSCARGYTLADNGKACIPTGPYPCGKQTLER
Description: as §1, §2
(§3) By substantially following the procedures described above for human thrombin, and using other human blood coagulation system serine proteases, and using fibrinolytic system serine proteases, with the appropriate chromogenic substrate, identified below, selectivity of the compounds of the present invention with respect to the coagulation factor serine proteases and to the fibrinolytic serine proteases are evaluated as well as their substantial lack of interference with human plasma clot fibrinolysis.
(§4) Human factors X, Xa, IXa, XIa, and xIIa are purchased from Enzyme Research Laboratories, South Bend, Ind.; human urokinase from Leo Pharmaceuticals, Denmark; and recombinant activated Protein C (aPC) is prepared at Eli Lilly and Co. substantially according to U.S. Pat. No. 4,981,952 incorporated by reference herein in its entirety. Chromogenic substrates: N-Benzoyl-Ile-Glu-Gly-Arg-p-nitroanilide (for factor Xa); N-Cbz-D-Arg-Gly-Arg-p-nitroanilide (for factor IXa assay as the factor Xa substrate) pyroglutamyl-Pro-Arg-p-nitroanilide (for factor XIa and for aPC); H-D-Pro-Phe-Arg-p-nitroanilide (for factor XIIa); and pyroglutamyl-Gly-Arg-p-nitroanilide (for urokinase); are purchased from KabiVitrum, Stockholm, Sweden, or from Midwest Biotech, Fishers, Indiana. Bovine trypsin is purchased from Worthington Biochemicals, Freehold, N.J., and human plasma kallikrein from Kabi Vitrum, Stockholm, Sweden. N-Benzoyl-Phe-Val-Arg-p-nitroanilide, the substrate for human thrombin and for trypsin, is synthesized according to procedures described above for the compounds of the present invention, known methods of peptide coupling from commercially available reactants, or was purchased from Midwest Biotech, Fishers, Ind. Human plasmin is purchased from Boehringer Mannheim, Indianapolis, Ind.; nt-PA is purchased as single chain activity reference from American Diagnostics, Greenwich, Conn.; modified-t-PA6 (mt-PA6) is prepared at Eli Lilly and Company by procedure known in the art (See, Burck, et al., J. Biol. Chem., 265, […] (1990). Plasmin chromogenic substrate H-D-Val-Leu-Lys-p-nitroanilide and tissue plasminegen activator (t-PA) substrate H-D-Ile-Pro-Arg-p-nitroanilide are purchased from Kabi Vitrum, Stockholm, Sweden.

Bovine trypsin = molecular target: T3, Bovine trypsin (Bos taurus, UniProt P00760); assay: Serine protease inhibition, trypsin (chromogenic substrate), Kass; format: biochemical; details: substrate N-Benzoyl-Phe-Val-Arg-p-nitroanilide
T3 construct: Bovine trypsin is purchased from Worthington Biochemicals, Freehold, N.J; purchased Worthington Biochemicals, Freehold, N.J
T3 sequence (P00760 24-246): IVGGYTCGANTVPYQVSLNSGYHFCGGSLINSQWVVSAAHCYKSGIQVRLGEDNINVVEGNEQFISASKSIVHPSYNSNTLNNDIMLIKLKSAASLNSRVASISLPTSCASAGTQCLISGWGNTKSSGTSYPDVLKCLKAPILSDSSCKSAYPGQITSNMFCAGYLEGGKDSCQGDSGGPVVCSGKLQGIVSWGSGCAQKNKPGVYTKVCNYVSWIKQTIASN
Description: as §1, §2, §3, §4

Human plasmin = molecular target: T4, Human plasmin (Homo sapiens, UniProt P00747); assay: Serine protease inhibition, plasmin (chromogenic substrate), Kass; format: biochemical; details: substrate H-D-Val-Leu-Lys-p-nitroanilide
T4 construct: Human plasmin is purchased from Boehringer Mannheim, Indianapolis, Ind; purchased Boehringer Mannheim, Indianapolis, Ind
T4 sequence (P00747 581-810 limits assumed): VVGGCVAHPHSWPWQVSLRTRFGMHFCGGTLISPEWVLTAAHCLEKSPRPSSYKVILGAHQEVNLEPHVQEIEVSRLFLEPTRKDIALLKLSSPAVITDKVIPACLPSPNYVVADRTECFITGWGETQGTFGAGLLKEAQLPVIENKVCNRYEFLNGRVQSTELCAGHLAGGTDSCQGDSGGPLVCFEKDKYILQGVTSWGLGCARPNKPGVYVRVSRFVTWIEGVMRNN
T4 sequence (P00747 97-580 partner limits assumed): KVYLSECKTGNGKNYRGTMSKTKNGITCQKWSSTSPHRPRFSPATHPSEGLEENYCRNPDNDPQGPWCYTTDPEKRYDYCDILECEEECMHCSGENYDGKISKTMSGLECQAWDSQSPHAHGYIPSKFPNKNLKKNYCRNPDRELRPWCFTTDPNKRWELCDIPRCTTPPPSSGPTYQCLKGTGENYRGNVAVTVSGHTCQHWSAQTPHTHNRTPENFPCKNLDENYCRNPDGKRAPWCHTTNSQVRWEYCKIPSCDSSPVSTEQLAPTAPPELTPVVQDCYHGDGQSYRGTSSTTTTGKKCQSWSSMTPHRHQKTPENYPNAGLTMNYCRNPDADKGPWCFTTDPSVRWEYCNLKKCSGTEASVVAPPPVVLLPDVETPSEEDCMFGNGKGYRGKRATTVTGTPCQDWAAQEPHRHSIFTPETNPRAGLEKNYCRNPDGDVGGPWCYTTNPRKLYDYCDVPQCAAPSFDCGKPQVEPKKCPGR
Description: as §1, §2, §3, §4

[1] = molecular target: T5, tissue plasminogen activator (t-PA) (Homo sapiens, UniProt P00750); assay: Serine protease inhibition, t-PA (chromogenic substrate), Kass; format: biochemical; details: for Enzyme Kass, t-Pa: substrate H-D-Ile-Pro-Arg-p-nitroanilide
T5 construct: purchased American Diagnostics, Greenwich, Conn
T5 sequence (P00750 36-562): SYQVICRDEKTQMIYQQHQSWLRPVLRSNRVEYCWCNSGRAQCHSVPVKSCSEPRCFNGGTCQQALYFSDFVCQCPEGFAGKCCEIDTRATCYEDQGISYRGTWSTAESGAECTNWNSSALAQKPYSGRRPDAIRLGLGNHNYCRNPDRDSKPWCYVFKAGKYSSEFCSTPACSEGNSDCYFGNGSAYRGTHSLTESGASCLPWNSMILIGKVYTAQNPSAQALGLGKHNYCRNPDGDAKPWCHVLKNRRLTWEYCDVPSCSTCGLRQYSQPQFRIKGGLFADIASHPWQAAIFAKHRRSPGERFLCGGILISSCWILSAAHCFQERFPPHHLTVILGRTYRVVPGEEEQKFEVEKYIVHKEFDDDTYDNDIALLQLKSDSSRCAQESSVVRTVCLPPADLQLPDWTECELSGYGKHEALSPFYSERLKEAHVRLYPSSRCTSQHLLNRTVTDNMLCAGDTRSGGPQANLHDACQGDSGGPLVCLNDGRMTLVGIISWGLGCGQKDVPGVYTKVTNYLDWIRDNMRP
Description: as §1, §2, §3, §4

Human Plasma [2] = assay: Anticoagulation in human plasma, thrombin time (TT); format: biochemical; details: concentration required to double the thrombin time
Description: (§5) Dog plasma and rat plasma are obtained from conscious mixed-breed hounds (either sex, Hazelton-LRE, Kalamazoo, Mich., U.S.A.) or from anesthetized male Sprague-Dawley rats (Harlan Sprague-Dawley, Inc., Indianapolis, Ind., U.S.A.) by venipuncture into 3.8 percent citrate. Fibrinogen is prepared from in-date ACD human blood as the fraction I-2 according to previous procedures and specifications. Smith, Biochem. Chem. […] Human fibrinogen is also purchased as 98 percent pure/plasmin free from American Diagnostics, Greenwich, Conn. Coagulation reagents ACTIN, Thromboplastin, and Human plasma are from Baxter Healthcare Corp., Dade Division, Miami, Fla. Bovine thrombin from Parke-Davis (Ann Arbor, Mich.) is used for coagulation assays in plasma. Coagulation assay procedures are as previously described. Smith, et al., Thrombosis Research, 5, 163-174 (1988). A CoAScreener coagulation instrument (American LABor, Inc.) is used for all coagulation assay measurements. The prothrombin time (PT) is measured by adding 0.05 ml saline and 0.05 ml Thromboplastin-C reagent to 0.05 ml test plasma. The activated partial thromboplastin time (APTT) is measured by incubation of 0.05 ml test plasma with 0.05 ml Actin reagent for 120 seconds followed by 0.05 ml CaCl2 (0.02M). […] The compounds of formula I are added to human or animal plasma over a wide range of concentrations to determine prolongation effects on the APTT, PT, and TT assays. Linear extrapolations are performed to estimate the concentrations required to double the clotting time for each assay.

Human Plasma [3] = assay: Anticoagulation in human plasma, activated partial thromboplastin time (APTT); format: biochemical; details: concentration required to double the APTT
Description: as §5

Human Plasma [4] = assay: Anticoagulation in human plasma, prothrombin time (PT); format: biochemical; details: concentration required to double the PT
Description: as §5

[5] = Index of bioavailability (plasma TT AUC, p.o. vs i.v.); details: rats, adjusted for dose
Description: Male Sprague Dawley rats (350-425 gm, Harlan Sprague Dawley Inc., Indianapolis, Ind.) are anesthetized with xylazine (20 mg/kg, s.c.) and ketamine (120 mg/kg, s.c.) and maintained on a heated water blanket (37° C.). The jugular vein(s) is cannulated to allow for infusions.
Plasma thrombin time (TT) and activated partial thromboplastin time (APTT) are measured with a fibrometer. Blood is sampled from a jugular catheter and collected in syringe containing sodium citrate (3.8%, 1 part to 9 parts blood). To measure TT, rat plasma (0.1 ml) is mixed with saline (0.1 ml) and bovine thrombin (0.1 ml, 30 U/ml in TRIS buffer; Parke Davis) at 37° C. For APTT, plasma (0.1 ml) and APTT solution (0.1 ml, Organon Teknika are incubated for 5 minutes (37° C.) and CaCl2 (0.01 ml, 0,025M) is added to start coagulation. Assays are done in duplicate and averaged.
The time course of the effect of the thrombin inhibitor upon TT is determined after i.v bolus administration to anesthetized rats and after oral treatment of fasted conscious rats. Due to limitations of blood volume and the number of points required to determine the time course from time of treatment to the time when the response returns to pretreatment values, two populations of rats are used. Each sample population represents alternating sequential time points. The average TT over the time course is used to calculate area under the curve (AUC). The index of bioavailability is calculated by the formula shown below and is expressed as percent relative activity.
The area under the curve (AUC) of the plasma TT time course is determined and adjusted for the dose. This index of bioavailability is termed "% Relative Activity" and is calculated as [formula]
Compound solutions are prepared fresh daily in normal saline and are injected as a bolus or are infused starting 15 min before and continuing throughout the experimental perturbation which is 15 minutes in the arteriovenous shunt model and 60 minutes in the FeCl3 model of arterial injury and in the spontaneous thrombolysis model. Bolus injection volume is 1 ml/kg for i.v., and 5 ml/kg for p.o. and infusion volume is 3 ml/hr.

SMILES	Enzyme Kass, Human Thrombin (human thrombin) [L/mol × 10^6]	Enzyme Kass, Xa (factor Xa) [L/mol × 10^6]	Enzyme Kass, Trypsin (Bovine trypsin) [L/mol × 10^6]	Enzyme Kass, Plasmin (Human plasmin) [L/mol × 10^6]	Enzyme Kass, t-Pa [1] [L/mol × 10^6]	2 × Clotting time, TT (Human Plasma [2]) [ng/mL]	2 × Clotting time, APTT (Human Plasma [3])	2 × Clotting time, PT (Human Plasma [4])	Index of Bioavailability, % Relative Activity [5] [%]	t-Pa inhibition ([1]; at 13 μg/mL) [%]
CC(C)S(=O)(=O)N[C@H](Cc1ccccc1)C(=O)N1CCC[C@H]1C(=O)N[C@H](C=O)CCCNC(=N)N.Cl [Example 11, i-Pr-SO2 -D-Phe-Pro-Arg-H-HCl]	460	6.0	260	25	3.5	13	270 ng/mL	510 ng/mL	10	–
CN(C)S(=O)(=O)N[C@H](Cc1ccccc1)C(=O)N1CCC[C@H]1C(=O)N[C@H](C=O)CCCNC(=N)N.Cl [Example 12, Me2 NSO2 -D-Phe-Pro-Arg-H.HCl]	300	3.9	160	21	–	46	360 ng/mL	480 ng/mL	26	100
Cl.N=C(N)NCCC[C@@H](C=O)NC(=O)[C@@H]1CCCN1C(=O)[C@@H](Cc1ccccc1)NS(=O)(=O)c1ccccc1 [Example 13, PhSO2 -D-Phe-Pro-Arg-H.HCl]	270	3.6	180	19	2.3	14	450 ng/mL	930 ng/mL	3	–
Cl.N=C(N)NCCC[C@@H](C=O)NC(=O)[C@@H]1CCCN1C(=O)[C@@H](Cc1ccccc1)NS(=O)(=O)c1ccc(F)cc1F [Example 14, 2,4-F-PhSO2 -D-Phe-Pro-Arg-H-HCl]	230	11	160	25	2.4	21	350 ng/mL	940 ng/mL	6	–
Cl.N=C(N)NCCC[C@@H](C=O)NC(=O)[C@@H]1CCCN1C(=O)[C@@H](Cc1ccccc1)NS(=O)(=O)c1ccc(C(=O)O)cc1 [Example 18, 4-(HO2 C)-C6 H4 SO2 -D-Phe-Pro-Arg-H.HCl]	70	2.0	43	7.0	1.1	120	1,200 ng/ML	3,000 ng/ML	13	–
